Source: US4656173A, “Antipsychotic benzisothiazole S-oxide compound” (Bristol-Myers Company, priority 1985, dated 1987)

What was measured:
[1] = Kwan and Heimlich, Internat. J. of Pharmaceutics, 6, (1980) 237-241, cited for biotransformations; cited from earlier work
[2] = biological target: Serotoninergic (S2) receptor binding site (Homo sapiens, UniProt P28223); experiment: In vitro receptor binding, serotoninergic (S2); conditions: predictive correlate: lack of EPS (?)
[3] = biological target: α-adrenergic (α1) receptor binding site; experiment: In vitro receptor binding, α-adrenergic (α1); conditions: predictive correlate: postural hypotension, palpitations
Catalepsy (induction) = assay type: in vivo; conditions: rat, in vivo; oral; rats; read-out: oral ED50 in inducing catalepsy
From the text: (§1) 3. Catalepsy--drug-induced catalepsy in rats is predictive of potential extrapyramidal symptoms (EPS) in man. cf: Costall, et al, Psychopharmacologia, 34, 233-241 (1974); Berkson, J. Amer. Statist. Assoc., 48, 565-599 (1953).

[4] = tested on: drug-induced catalepsy in rats; experiment: Catalepsy (induction); assay type: in vivo; conditions: oral
From the text: as §1

[5] = biological target: Dopaminergic (D2) receptor binding site (Homo sapiens, UniProt P14416); experiment: In vitro receptor binding, dopaminergic (D2); conditions: predictive correlate: antipsychotic efficacy, EPS liability
Chain of Dopaminergic (D2) receptor binding site (P14416 whole entry): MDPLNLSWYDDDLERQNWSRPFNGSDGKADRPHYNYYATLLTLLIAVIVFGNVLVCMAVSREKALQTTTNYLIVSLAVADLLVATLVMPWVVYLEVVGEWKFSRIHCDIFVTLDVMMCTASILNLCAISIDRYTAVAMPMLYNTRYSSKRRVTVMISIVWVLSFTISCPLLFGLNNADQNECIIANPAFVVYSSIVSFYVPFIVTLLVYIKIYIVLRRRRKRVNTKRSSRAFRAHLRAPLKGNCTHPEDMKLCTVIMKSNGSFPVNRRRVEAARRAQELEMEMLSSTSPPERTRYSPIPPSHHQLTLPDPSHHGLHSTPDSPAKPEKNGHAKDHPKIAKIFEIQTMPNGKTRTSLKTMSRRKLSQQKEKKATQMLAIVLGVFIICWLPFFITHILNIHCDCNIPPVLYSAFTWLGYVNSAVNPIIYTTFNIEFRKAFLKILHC

[6] = biological target: Muscarinic receptor binding site; experiment: In vitro receptor binding, muscarinic; conditions: predictive correlate: dry mouth, constipation
[7] = Metabolic interconversion in rats; assay type: in vivo
From the text: (§2) Currently, there is insufficient information available to confirm that compound I is a metabolite of BMY 13859. […] Such interconversions have been previously reported, as for sulindac, supra.

[8] = tested on: apomorphine-induced stereotypy (dopaminergic activity in rats); experiment: Inhibition of Apomorphine-Induced (APO) Stereotypy; assay type: in vivo
From the text: 2. Inhibition of Apomorphine-Induced (APO) Stereotypy --an assessment of blockade of dopaminergic activity in rats as measured by attenuation of the behavioral syndrome caused by the dopamine agonist, apomorphine. cf: Janssen, et al., Arzneimittel. Forsch., 17, 841 (1966).

[9] = tested on: avoidance response to electrical shock in trained fasted rats; experiment: Conditioned Avoidance Response (CAR); assay type: in vivo
From the text: 1. Conditioned Avoidance Response (CAR)--measure of a drug's tranquilizing activity as determined by its attenuation of avoidance response to electrical shock in trained fasted rats. cf: Albert, Pharmacologist, 4, 152 (1962); Wu, et al, J. Med. Chem., 12, 876-881 (1969).

[10] = Blood plasma concentration after dosing of rats; assay type: in vivo; conditions: 30 minutes after dosing
From the text: In this regard, compound I represents an antipsychotic agent giving an improved neuropharmacological profile compared with BMY 13859.

[11] = Antipsychotic activity testing of dioxide (II); conditions: in vivo
[12] = Metabolic interconversion in humans; assay type: in vivo; conditions: high pressure liquid chromatography
From the text: as §2

Chain of Serotoninergic (S2) receptor binding site (P28223 whole entry): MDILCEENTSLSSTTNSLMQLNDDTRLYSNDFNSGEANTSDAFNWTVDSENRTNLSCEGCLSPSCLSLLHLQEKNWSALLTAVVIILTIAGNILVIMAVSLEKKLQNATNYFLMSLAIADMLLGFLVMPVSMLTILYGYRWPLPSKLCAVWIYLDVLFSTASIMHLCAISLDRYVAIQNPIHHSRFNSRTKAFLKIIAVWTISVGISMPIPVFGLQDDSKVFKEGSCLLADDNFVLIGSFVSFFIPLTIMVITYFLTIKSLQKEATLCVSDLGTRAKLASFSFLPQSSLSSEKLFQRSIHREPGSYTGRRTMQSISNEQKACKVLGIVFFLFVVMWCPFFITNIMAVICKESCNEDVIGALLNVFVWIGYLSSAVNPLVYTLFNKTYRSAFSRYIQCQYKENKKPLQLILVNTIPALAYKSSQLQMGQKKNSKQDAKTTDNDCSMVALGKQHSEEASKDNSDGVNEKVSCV

For `CC1=C(CC(=O)O)c2cc(F)ccc2C1=Cc1ccc([S+](C)[O-])cc1` (stereo not shown) [sulindac], the “pharmacological activity of sulindac” value [1] is given as “appears to reside only in the sulfide metabolite”.

With `O=C1CC2(CCCC2)CC(=O)N1CCCCN1CCN(c2n[s+]([O-])c3ccccc23)CC1` (stereo not shown) [Compound I, 8-[4-[4-(1-oxo-1,2-benzisothiazol-3-yl)-1-piperazinyl]butyl]-8-azaspiro[4.5]decane-7,9-dione] the IC50 [2] was 300 nM, the IC50 [3] was 330 nM and the ED50 (Catalepsy (induction)) was over 30 mg/kg. The “activity in inducing catalepsy” value [4] was “inactive”, the IC50 [5] was over 1000 nM and the IC50 [6] was over 1000 nM. For the same molecule, the “compound formed after administration of compound I” value [7] was “authentic BMY 13859 is formed in rats”, the “activity in the APO stereotypy test” value [8] was “potent activity” and the “activity in the CAR test” value [9] was “potent activity”. The “concentration of administered agent in blood plasma versus the other (interconverted) agent” value [10] was “several-fold higher in concentration”.

With `O=C1CC2(CCCC2)CC(=O)N1CCCCN1CCN(C2=NS(=O)(=O)c3ccccc32)CC1` [II] the antipsychotic activity [11] was “devoid of antipsychotic activity”.

`O=C1CC2(CCCC2)CC(=O)N1CCCCN1CCN(c2nsc3ccccc23)CC1` [BMY 13859, reference compound] showed an IC50 [2] of 1 nM, an IC50 [3] of 50 nM and an IC50 [5] of 10 nM. For the same molecule, the IC50 [6] was over 1000 nM, the “compound formed after administration of BMY 13859” value ([7]; high pressure liquid chromatography) was “a compound which co-elutes (high pressure liquid chromatography) with compound I is formed” and the “compound formed after administration of BMY 13859” value [12] was “a compound which co-elutes (high pressure liquid chromatography) with compound I is formed”. The “concentration of administered agent in blood plasma versus the other (interconverted) agent” value [10] was “several-fold higher in concentration”.
